Experimental data from patent US10993941B2, “Methods for the administration of certain VMAT2 inhibitors” (Neurocrine Biosciences, Inc., priority 2017, dated 2021).
“Also recorded” adds a separate entry of the source.

Assays:
Dopamine D1 = Dopamine D1 (Homo sapiens, UniProt P21728); assay: Cerep screen, ligand binding; settings: radioligand binding assays and broad panel screen
Dopamine D2(s) = Dopamine D2(s) (Homo sapiens, UniProt P14416); assay: Cerep screen, ligand binding; settings: radioligand binding assays and broad panel screen
Dopamine D2(s), sequence (P14416 1-414 isoform P14416-2): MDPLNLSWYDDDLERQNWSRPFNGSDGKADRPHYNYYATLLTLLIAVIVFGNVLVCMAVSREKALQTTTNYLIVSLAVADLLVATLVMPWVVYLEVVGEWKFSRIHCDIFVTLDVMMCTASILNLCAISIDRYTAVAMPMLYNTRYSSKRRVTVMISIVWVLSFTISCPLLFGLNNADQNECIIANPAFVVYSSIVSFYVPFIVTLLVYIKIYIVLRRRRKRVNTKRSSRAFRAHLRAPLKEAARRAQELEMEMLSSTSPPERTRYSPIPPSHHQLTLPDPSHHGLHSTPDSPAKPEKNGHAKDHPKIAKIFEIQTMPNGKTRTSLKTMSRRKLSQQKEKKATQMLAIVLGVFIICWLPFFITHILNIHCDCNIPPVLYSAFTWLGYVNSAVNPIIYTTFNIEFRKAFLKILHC

human VMAT1 transporter = target: T1, human VMAT1 transporter (Homo sapiens, UniProt P54219); assay: Uptake in cells expressing VMAT1; assay type: cell-based; settings: concentrations up to 10 μM
T1 construct: expressed in transfected cells
T1 sequence (P54219 1-525): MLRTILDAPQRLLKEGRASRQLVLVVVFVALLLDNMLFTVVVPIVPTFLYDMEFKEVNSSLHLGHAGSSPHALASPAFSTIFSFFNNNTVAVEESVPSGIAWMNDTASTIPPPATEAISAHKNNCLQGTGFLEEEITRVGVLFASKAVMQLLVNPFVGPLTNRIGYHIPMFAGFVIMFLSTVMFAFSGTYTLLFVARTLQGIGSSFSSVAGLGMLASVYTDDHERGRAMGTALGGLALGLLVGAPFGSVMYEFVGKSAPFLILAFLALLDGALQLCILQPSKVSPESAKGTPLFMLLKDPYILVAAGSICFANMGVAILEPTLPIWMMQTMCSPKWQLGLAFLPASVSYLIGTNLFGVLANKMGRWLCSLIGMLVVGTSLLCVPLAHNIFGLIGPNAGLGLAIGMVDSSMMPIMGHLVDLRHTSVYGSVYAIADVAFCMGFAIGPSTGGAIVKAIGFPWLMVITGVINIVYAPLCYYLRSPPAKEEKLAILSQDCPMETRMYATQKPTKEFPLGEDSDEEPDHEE
Procedure: None of the TBZ or VBZ metabolites had any affinity for the monoamine transporters DAT, SERT or NET. To complete the selectivity profile for VMAT2, the functional activity for the human VMAT1 transporter of these compounds was tested in cells expressing VMAT1.

[1] = test system: dopamine, serotonin and adrenergic receptor subtypes; assay: Detailed radioligand binding assays, monoamine receptor subtypes
ptosis = assay: Ptosis, in vivo surrogate measure
serum prolactin = assay: Prolactin release, in vivo surrogate measure
[2] = both, human, in vivo
From the text: (§1) Overall, 24 male and female subjects were enrolled, including 6 subjects with normal hepatic function (Group I), 6 with mild stable hepatic impairment (Group II), 6 with moderate stable hepatic impairment (Group III), and 6 with severe stable hepatic impairment (Group IV). […] All subjects were genotyped to determine their cytochrome P450 2D6 (CYP2D6) status.
(§2) The Child-Pugh scale was used to categorize the degree of hepatic impairment for assignment into the mild (score of 5-6), moderate (score of 7-9), and severe hepatic impairment (score of 10-15) groups.
(§3) After providing informed consent, subjects were screened for eligibility within 28 days of study drug dosing on Day 1. Eligible subjects were admitted to the center in the morning (Day −1), before the dosing day and remained confined in the center for 4 days. Subjects were discharged on Day 4, after the collection of the 72-hour PK sample and safety assessments. On the morning of Days 5 and 6, subjects returned to the center for a PK sample collection and safety assessments; a final study visit was conducted on Day 8 (7 days postdose).
(§4) Safety assessments were conducted at scheduled times throughout the study.

clinical = settings: both, human, in vivo
From the text: as §1, §2, §3, §4

[3] = test system: more than 80 targets including GPCRs, cell-surface monoamine transporters, and ion channels including HERG; assay: Multi-target activity screen (Cerep screen); settings: receptors

Dopamine D1, sequence (P21728 whole entry): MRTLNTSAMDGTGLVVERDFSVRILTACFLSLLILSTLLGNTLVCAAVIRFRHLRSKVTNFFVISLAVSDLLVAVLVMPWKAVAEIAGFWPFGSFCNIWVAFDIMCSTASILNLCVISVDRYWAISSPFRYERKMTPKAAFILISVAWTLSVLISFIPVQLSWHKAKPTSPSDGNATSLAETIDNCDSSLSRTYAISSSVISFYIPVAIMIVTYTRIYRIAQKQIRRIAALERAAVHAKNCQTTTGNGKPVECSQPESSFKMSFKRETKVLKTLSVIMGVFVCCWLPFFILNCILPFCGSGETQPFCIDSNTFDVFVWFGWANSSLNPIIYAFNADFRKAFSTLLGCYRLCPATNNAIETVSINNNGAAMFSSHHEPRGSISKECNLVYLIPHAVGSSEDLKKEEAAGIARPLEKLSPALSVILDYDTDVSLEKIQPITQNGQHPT

Compound	interaction with D1 receptors (Dopamine D1)	interaction with D2 receptors (Dopamine D2(s))	induction of ptosis (ptosis)	increase in serum prolactin levels (serum prolactin)	increase in AUC0-∞ [2]	increase in t1/2 with hepatic impairment [2] [fold]	increase in tmax with hepatic impairment [2] [fold]	mean Tlag [2] [h]	MRT (clinical) [h]	MRT (clinical; po, 50 mg) [h]	affinity for more than 80 binding sites [3]	inhibition of uptake through VMAT1 (human VMAT1 transporter)	further results
COc1cc2c(cc1OC)[C@@H]1C[C@@H](O)[C@@H](CC(C)C)CN1CC2 [R,S,S-DHTBZ]	interact with D1 and D2 receptors	interact with D1 and D2 receptors	–	–	–	–	–	–	–	–	–	–	–
COc1cc2c(cc1OC)[C@H]1C[C@@H](O)[C@H](CC(C)C)CN1CC2 [NBI-98782, (2R,3R,11bR)-3-isobutyl-9,10-dimethoxy-1,3,4,6,7,11b-hexahydro-2H-pyrido[2,1-a]isoquinolin-2-ol]	–	–	induced ptosis in an equivalent manner	induced a similar increase in serum prolactin levels as TBZ	approximately 3.5 fold	< 2	< 2	0.42 to 0.67	36 to 53	36	little to no affinity	–	inhibition of uptake through VMAT1 (human VMAT1 transporter; listed as R,R,R-DHTBZ): no significant inhibitory activity; also recorded: no significant effect on the uptake of monoamines through VMAT1; specificity for the VMAT2 transporter versus monoamine receptor subtypes [1]: high specificity
COc1cc2c(cc1OC)[C@@H]1C[C@H](O)[C@@H](CC(C)C)CN1CC2 [S,S,S-DHTBZ]	interact with D1 and D2 receptors	interact with D1 and D2 receptors	–	–	–	–	–	–	–	–	–	–	–
COc1cc2c(cc1OC)C1CC(=O)C(CC(C)C)CN1CC2 (stereo not drawn) [TBZ, reference compound]	–	–	induced ptosis in an equivalent manner	increase in serum prolactin levels	–	–	–	–	–	–	–	no significant inhibitory activity; also recorded: no significant effect on the uptake of monoamines through VMAT1	–
COc1cc2c(cc1OC)[C@H]1C[C@@H](OC(=O)[C@@H](N)C(C)(C)O)[C@H](CC(C)C)CN1CC2 [NBI-136110]	–	–	–	–	< 2 fold	< 2	< 2	0.33 to 0.54	51 to 81	53	little to no affinity	–	increase in Cmax [2]: < 2 fold; mean molar ratio of plasma AUC0-∞ for NBI-136110 versus NBI-98854 [2]: 28.3-37.3%; half-life (clinical; mean t1/2): 33 to 36 h; Tmax (clinical; median tmax): 2.5 to 4 h; AUC(0-t) (clinical; po, 50 mg, AUC0-24): 363 ng·h/mL; AUC(0-t) (clinical; po, 50 mg, AUC0-TLAST): 928 ng·h/mL; AUC(0-inf) (clinical; po, 50 mg, AUC0-∞): 1030 ng·h/mL; Cmax (clinical; po, 50 mg, CMAX): 32.5 ng/mL; Tmax (clinical; po, 50 mg, TMAX): 4 h; half-life (clinical; po, 50 mg, t1/2): 57 h
COC(=O)[C@H]1[C@H]2C[C@@H]3c4[nH]c5cc(OC)ccc5c4CCN3C[C@H]2C[C@@H](OC(=O)c2cc(OC)c(OC)c(OC)c2)[C@@H]1OC [reserpine, reference compound]	–	–	–	–	–	–	–	–	–	–	–	substantially inhibited uptake through VMAT1	–
